Literature values, collected in patent publication US20130122091A1, “POLYDEOXYRIBONUCLEOTIDE-BASED COMPOSITIONS AND THEIR METHODS OF USE” (MEDESTEA INTERNAZIONALE SPA, priority 2010, published 2013).

How the values were obtained:
[1] = PDRN-treated survivors, versus 2% of non-PDRN-treated survivors

polydeoxyribonucleotides [PDRNs]
Resolution of the serious hepatic veno-occlusive disease [1]: 42%
increase in the number of fibroblasts (fibroblasts): 35%
increase in the production of all the dermal matrix components (fibroblasts): 30%
